Results reported in patent US5733893A, “Method of identifying molecules that regulate FGF activity” (Washington University, priority 1995, dated 1998).
“Also recorded” adds a separate entry of the source.

Legend:
[1] = target: T1, bFGF (Homo sapiens, UniProt P09038); test: competition with 125I-heparin binding to bFGF; conditions: for binding to bFGF/FGF (in words): competition with 125I-heparin; for IC50: 4 nM FGF, read-out: IC50 (50% competition for 125I-heparin binding to bFGF) (converted)
T1 construct: purchased Scios Nova
Experimental: FIG. 2A: Binding of oligosaccharides to bFGF as determined by competition with ^125 I-heparin (30).
(§1) The ability of these small oligosaccharides to compete with the binding on ^125 I-heparin to FGF was also assayed. Heparin iodination was carried out by previously published procedure (30). Heparin binding to FGF was determined by incubating 4 nM FGF with ^125 I-heparin and competitor polysaccharide. Complexes were immunoprecipitated with 1:250 dilutions of monoclonal antibody DG2 (DuPont/Merck) (for bFGF) or a polyclonal antibody (for aFGF), and protein A SEPHAROSE (Sigma Chemical Co.). Washing and quantitation was carried out by procedures previously published for soluble receptor-binding assays (3).
(§2) 12. Heparin iodination was as in (30). Heparin binding to FGF was determined by incubating 4 nM FGF with ^125 I-heparin and competitor polysaccharide. Complexes were immunopredpitated with 1:250 dilutions of monoclonal antibody DG2 (for bFGF) or a polydonal antibody (for aFGF), and protein A sepharose (Sigma). Washing and quantitation was as previously described for soluble receptor binding assays (3).

[2] = tested on: FGFR1-expressing BaF3 cells; test: bFGF mitogenic activity, 3H-thymidine incorporation into FGFR1-expressing BaF3 cells; format: cell-based; conditions: for mitogenic activity with bFGF (in words): FGFR1-expressing BaF3 cells; for Mitogenic activity: relative concentration (wt/vol.) required to incorporate 2 × 10^4 cpm 3H-thymidine into F32 cell DNA: relative to heparin (1.0), ± standard deviation; for mitogenic activity with bFGF (in words) / Mitogenic activity: relative concentration (wt/vol.) required to incorporate 2 × 10^4 cpm 3H-thymidine into F32 cell DNA: bFGF; for fold more active than SOS: FGFR1-expressing BaF3 cell growth with bFGF
Excerpt: This cell line was used to assay synthetic heparin/HS molecules as potential activators or inhibitors of heparin/HS-dependent mitogenesis (3).

[3] = tested on: aFGF; test: competition with 125I-heparin binding to aFGF
Experimental: as §1, §2

[4] = tested on: aFGF binding to FRAP; test: binding of 125I-aFGF to soluble receptor FRAP in presence of oligosaccharide; conditions: increasing concentrations
Experimental: (§3) FIG. 2C: Acidic FGF binding to FRAP; FIG. 2D:, basic FGF binding to FRAP. ^125 I-FGFs were incubated with FRAP in the presence of increasing concentrations of heparin or Tri-3; Binding assays were performed as previously described (3).
(§4) The FGFR1-expressing BaF3 cell line was used to assay synthetic heparin/HS molecules as potential activators or inhibitors of heparin/HS-dependent mitogenesis by an assay procedure published previously (3). Such cell lines, which express FGRF1, require heparin/HS and FGF for growth (3). […]

[5] = tested on: FGF receptors; test: dimerization of FGF receptors on BaF3-FGFR1 cells by crosslinking; format: cell-based; conditions: BaF3-FGFR1 cells with FGF-2
Experimental: Binding media (DMEM/0.1% BSA) was supplemented with the indicated concentration of heparin or Tri-3.(*) 200 ng/ml unlabeled FGF-2 added to binding media; Cells were washed once with the same media used for binding, and once with PBS. Crosslinking was as described previously (27).
Crosslinked receptors were electrophoresed on a 5% SDS polyacrylamide gel under reducing condition, and visualized by autoradiography. The lower band corresponds to receptor monomers crosslinked to FGF-2. The upper band corresponds to receptor dimers crosslinked to each other and to FGF-2. Molecular weights (kD) are shown at the right.
Binding media (DMEM/0.1% BSA) was supplemented with the indicated concentration of heparin or Tri-3.(*) 200 ng/ml unlabeled FGF-2 added to binding media; Cells were washed once with the same media used for binding, and once with PBS. Crosslinking was as described previously
Crosslinked receptors were electrophoresed on a 5% SDS polyacrylamide gel under reducing condition, and visualized by autoradiography. The lower band corresponds to receptor monomers crosslinked to FGF-2. The upper band corresponds to receptor dimers crosslinked to each other and to FGF-2.

[6] = tested on: FGFR1-expressing BaF3 cells; test: aFGF mitogenic activity, 3H-thymidine incorporation into FGFR1-expressing BaF3 cells; format: cell-based
Excerpt: Activation of bFGF mitogenic activity as measured by ^3 H-thymidine incorporation into FGFR1-expressing BaF3 cells treated with 150 pM bFGF and increasing concentrations of the indicated oligosaccharides is shown. FIG. 1B.
as §4
However, their potency relative to that of heparin is less than that observed with bFGF (FIG. 1B).

[7] = target: T1, bFGF; test: bFGF dimerization by crosslinking and electrophoresis; format: biochemical; conditions: for induction of FGF dimers (in words): crosslinking
Experimental: 670 nM bFGF and 3×10^5 cpm ^125 I-bFGF were incubated with the indicated concentration of (μg/ml) Tri-3 or HS-16. Crosslinking and electrophoresis were performed as previously described (3). Dimer (45 kD) band intensities were quantified by scanning densitometry and plotted above each lane. Molecular weight markers (kD) are shown at the right.

[8] = tested on: bFGF-FRAP binding; test: binding of 125I-bFGF to soluble receptor FRAP in presence of oligosaccharide; conditions: oligosaccharides 2 μg/ml or increasing concentrations
Experimental: FIG. 2B: Binding of ^125 I-bFGF to FRAP (3), a soluble receptor, in the presence of the indicated oligosaccharide: *, no heparin added; heparin, 50 ng/ml; the remaining oligosaccharides (Di-1 to SOS) were added at a concentration of 2 μg/ml. FGFs were labeled by the Chloramine T method as previously described (31).
as §3, §4
Binding of bFGF to a soluble FGFR-alkaline phosphatase fusion protein (FRAP) or to a cell-surface FGFR is enhanced by heparin/HS or by heparin-derived oligosaccharides (8 to 12 sugar residues) (3,4). The ability of heparin/HS-derived di- and tri-saccharides to enhance FGF-FRAP binding in vitro was measured (3).

T1 sequence (P09038 134-288): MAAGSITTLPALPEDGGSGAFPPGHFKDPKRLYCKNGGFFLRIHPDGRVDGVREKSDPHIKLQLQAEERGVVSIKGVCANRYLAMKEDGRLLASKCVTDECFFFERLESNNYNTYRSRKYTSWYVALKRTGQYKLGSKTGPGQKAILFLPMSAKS

SMILES	binding to bFGF/FGF (in words) [1]	mitogenic activity with bFGF (in words) [2]	Mitogenic activity: relative concentration (wt/vol.) required to incorporate 2 × 10^4 cpm 3H-thymidine into F32 cell DNA [2]	binding to aFGF (in words) [3]	aFGF binding to FRAP (in words) [4]	dimerization of FGF receptors (in words) [5]	proliferation of FGFR1-expressing BaF3 cells in the presence of aFGF (in words) [6]	optimal concentration for dimerization activity ([7]; 670 nM bFGF) [µg/mL]	induction of FGF dimers (in words) [7]	IC50 [1] [µM]	enhancement of bFGF-FRAP binding (in words) [8]	fold more active than SOS [2] [fold]	mitogenic activity with bFGF (in words) ([2]; listed as D-3)	mitogenic activity with bFGF (in words) ([2]; listed as D-4)
CO[C@@H]1O[C@H](C(=O)O)[C@@H](O[C@H]2O[C@H](CO)[C@@H](O[C@@H]3O[C@@H](C(=O)O)[C@@H](O)[C@H](O)[C@H]3O)[C@H](O)[C@H]2NS(=O)(=O)O)[C@H](O)[C@H]1O [Tri-2, α-L-IdoA-(1→4)-α-D-GlcNSO3 -(1→4)-β-D-GlcA-1→OMe]	affinity less than that of SOS	intermediate mitogenic activity; also recorded: lack of activity	470.6 ± 25.6											
CO[C@@H]1O[C@H](C(=O)O)[C@@H](O[C@H]2O[C@H](CO)[C@@H](O)[C@H](O)[C@H]2NC(C)=O)[C@H](O)[C@H]1O [Di-5, D-GlcNAc-(1→4)-β-D-GlcA-1→OMe]		intermediate mitogenic activity	463.6											
CO[C@H]1O[C@H](CO)[C@@H](O[C@@H]2O[C@@H](C(=O)O)[C@@H](O)[C@H](O)[C@H]2O)[C@H](O)[C@H]1NC(C)=O [Di-1, α-L-IdoA-(1→4)-α-D-GlcNAc-1→OMe]		no activity												
CO[C@@H]1O[C@H](C(=O)O)[C@@H](O[C@H]2O[C@H](CO)[C@@H](O[C@@H]3O[C@@H](C(=O)O)[C@@H](O)[C@H](O)[C@H]3O)[C@H](O)[C@H]2NC(C)=O)[C@H](O)[C@H]1O [Tri-3, α-L-IdoA-(1→4)-α-D-GlcNAc-(1→4)-β-D-GlcA-1→OMe]	bind and affinity higher than that of SOS	active at concentrations comparable to that of heparin; also recorded: higher than expected mitogenic activity; also recorded: the most active compound tested	3.2	bind	increases in a dose-dependent manner	dimerization of FGF receptors induced	stimulate the proliferation	35	induce FGF dimers as well as higher order oligomers	9.87	enhance bFGF-FRAP binding; also recorded: increases in a dose-dependent manner; also recorded: reproducibly exceeds that with heparin			
CO[C@@H]1O[C@H](C(=O)O)[C@@H](O[C@H]2O[C@H](CO)[C@@H](O[C@@H]3O[C@H](C(=O)O)[C@@H](O)[C@H](O)[C@H]3O)[C@H](O)[C@H]2NC(C)=O)[C@H](O)[C@H]1O [Tri-1, β-D-GlcA-(1→4)-α-D-GlcNAc-(1→4)-β-D-GlcA-1→OMe]	bind and affinity higher than that of SOS	active at concentrations comparable to that of heparin; also recorded: higher than expected mitogenic activity	1.2 ± 0.2	bind			stimulate the proliferation			19.9	inability of Tri-1 to enhance FGF-FRAP binding			
CO[C@H]1O[C@H](CO)[C@@H](O[C@@H]2O[C@H](C(=O)O)[C@@H](O)[C@H](O)[C@H]2O)[C@H](O)[C@H]1NC(C)=O [Di-3, β-D-GlcA-(1→4)-α-D-GlcNAc-1→OMe]	bind	intermediate mitogenic activity	26.0	bind					induce FGF dimers as well as higher order oligomers		enhance bFGF-FRAP binding	55	the most active of the disaccharides	
CO[C@H]1O[C@H](CO)[C@@H](O[C@@H]2O[C@H](C(=O)O)[C@@H](O)[C@H](O)[C@H]2O)[C@H](O)[C@H]1NS(=O)(=O)O [Di-4, β-D-GlcA-(1→4)-α-D-GlcNSO3 -1→OMe]	bind	intermediate mitogenic activity	24.7	bind							enhance bFGF-FRAP binding	55		the most active of the disaccharides
O=S(=O)(O)OC[C@H]1O[C@@](COS(=O)(=O)O)(O[C@H]2O[C@H](COS(=O)(=O)O)[C@@H](OS(=O)(=O)O)[C@H](OS(=O)(=O)O)[C@H]2OS(=O)(=O)O)[C@@H](OS(=O)(=O)O)[C@@H]1OS(=O)(=O)O [SOS, sucrose octasulfate, reference compound]	bind	minimal biological activity	1380.8 ± 30.6	bind						94.6				
CO[C@H]1O[C@H](CO)[C@@H](O[C@@H]2O[C@@H](C(=O)O)[C@@H](O)[C@H](O)[C@H]2O)[C@H](O)[C@H]1NS(=O)(=O)O [Di-2, α-L-IdoA-(1→4)-α-D-GlcNSO3 -1→OMe]	affinity less than that of SOS	intermediate mitogenic activity; also recorded: higher than expected mitogenic activity	69.5 ± 9.6											
